Experimental data published in patent publication US20250214925A1, “CATIONIC LIPID, LIPOSOME, LIPID NANOPARTICLE, AND USE” (CARCELL BIOPHARMA LTD., priority 2022, published 2025).

Experiments:
[1] = mRNA encapsulation efficiency of LNP by Ribogreen assay; format: physicochemical; conditions: LNP: 50% cationic lipid, 38.5% cholesterol, 10% DSPC, 1.5% DMG-PEG2000; Ffluc mRNA
Method in brief: (§1)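 LNPs of cationic lipid/cholesterol/DSPC/DMG-PEG2000 at 50/38.5/10/1.5 mol% in ethanol, mixed with Ffluc mRNA at 0.2 mg/mL in 10 mM pH 4.0 citrate via T-mixer at 40 mL/min. Dialyzed overnight against 50 mM Tris-buffered saline pH 7.4 and sieved; PDI by dynamic light scattering, encapsulation by Ribogreen.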

mice [2] = experiment: In vivo delivery of Ffluc mRNA LNP in mice, intravenous administration, luminescence relative to MC3; design: species or system mice (female Balb/C); conditions: fold change in luminescence intensity relative to MC3; 0.06 mg/kg tail vein; 6 h after injection
Method in brief: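 Female Balb/C mice (18-22 g, 6-8 weeks, n=5) received Ffluc mRNA LNP at 0.06 mg/kg by tail vein in 50 mM TBS pH 7.4. Six hours later, intraperitoneal D-luciferin was given and whole-body luminescence imaged, with each lipid reported as fold change relative to MC3 LNP.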

mice [3] = experiment: In vivo delivery of Ffluc mRNA LNP in mice, intramuscular administration, luminescence relative to MC3; design: species or system mice (female Balb/C); conditions: fold change in luminescence intensity relative to MC3; 50 μL of 0.1 mg/mL mRNA LNP into right thigh; 6 h after injection
Method: The prepared encapsulation solution was applied to mice in the following manner, and its delivery efficiency in mice was tested. Among them, DLin-MC3-DMA (MC3) was a cationic liposome for delivering small nucleic acids that was approved by the FDA for marketing in 2018, which has high nucleic acid drug delivery efficiency and biosafety, and was usually used as the industry gold standard in the screening process of cationic lipids. In the evaluation of mice experiments, the ratio of nucleic acid delivery efficiency normalized to MC3 was greater than 0.1, which was considered to be a cationic lipid with high delivery efficiency.
The LNP solution was diluted with 50 mM TBS, pH 7.4 to a concentration of 0.1 mg/mL mRNA.
2. The mice involved in this study were female Balb/C, weighing 18-22 g, 6-8 weeks old, with 5 mice in each group.
3. The dosing solution was kept at 4° C. prior to injection.
4. 50 μL of LNP solution was injected into the right thigh of the mice.
5. The mice were injected intraperitoneally with 200 μL of 1.5 mg/mL D-luciferin solution 6 h after injection.
6. The in vivo luminescence images of the mice were obtained using the IVIS system (Aniview).
7. The luminescence intensity of each mice was measured using Aniview software.
8. MC3 lipid nanoparticles were used as a positive control. The in vivo efficacy of each cationic lipid tested was recorded as the fold change in luminescence intensity relative to MC3 (ratio normalized to MC3).

[4] = LNP size and PDI by dynamic laser light scattering; format: physicochemical; conditions: LNP: 50% cationic lipid, 38.5% cholesterol, 10% DSPC, 1.5% DMG-PEG2000; Ffluc mRNA
Method in brief: as §1

Encapsulation Rate [1]	PDI [4]	Size (nm) [4]	Structure (SMILES)	In Vivo Efficacy Normalized To Mc3 In Mice (Intravenous Injection) (mice [2])	In Vivo Efficacy Normalized To Mc3 In Mice (Intramuscular Injection) (mice [3])
95%	0.2173	100.4 nm	CCCCCCCCCC/C(=C\C(=O)OCCCCCCN(CCCO)CCCCCCOC(=O)/C=C(/CCCCC)CCCCCCCCCC)CCCCC [CPL-070, ((3-hydroxypropyl)azanediyl)bis(hexane-6,1-diyl) (2Z,2′Z)-bis(3-pentyltridec-2-enoate)]	3.74	1.85
92%	0.1733	88.06 nm	CCCCCCC(=CC(=O)OCCCCCCN(CCCO)CCCCCCOC(=O)C=C(CCCCCC)CCCCCC)CCCCCC [CPL-071, ((3-hydroxypropyl)azanediyl)bis(hexane-6,1-diyl) (2E,2′E)-bis(3-hexylnon-2-enoate)]	2.05	7.81
99%	0.3691	95.7 nm	CCCCCCC/C(=C/C(=O)OCCCCCCN(CCCO)CCCCCCOC(=O)/C=C(\CCCC)CCCCCCC)CCCC [CPL-074, ((3-hydroxypropyl)azanediyl)bis(hexane-6,1-diyl) (2E,2′E)-bis(3-butyldec-2-enoate)]	2.40	7.93
97%	0.21	98.6 nm	CCCCCCCCCC/C(=C/C(=O)OCCCCCCCN(CCCO)CCCCCCCOC(=O)/C=C(\CCCCC)CCCCCCCCCC)CCCCC [CPL-092-01, ((3-hydroxypropyl)azanediyl)di(heptane-7,1-diyl) (2E,2′E)-di(3-pentyltridec-2-enoate)]	8.96	2.20
95%	0.1973	71.62 nm	CCCCCCC/C(=C/C(=O)OCCCCCCCN(CCCO)CCCCCCCOC(=O)/C=C(\CCCC)CCCCCCC)CCCC [CPL-096, ((3-hydroxypropyl)azanediyl)bis(heptane-7,1-diyl)(2E,2′E)-bis(3-butyldec-2-enoate)]	2.06	2.59

Structure (SMILES)	Encapsulation Rate [1]	PDI [4]	Size (nm) [4]	In Vivo Efficacy Normalized To Mc3 In Mice (Intravenous Injection) (mice [2])	In Vivo Efficacy Normalized To Mc3 In Mice (Intramuscular Injection) (mice [3])
CCCCCCCC/C(=C/C(=O)OCCCCCCN(CCCO)CCCCCCOC(=O)/C=C(\CCCCC)CCCCCCCC)CCCCC [CPL-069-01, ((3-hydroxypropyl)azanediyl)bis(hexane-6,1-diyl) (2E,2′E)-bis(3-pentylundec-2-enoate)]	97%	0.126	84.59 nm	2.70	1.72
CCCCCCCCCC/C(=C/C(=O)OCCCCCCN(CCCO)CCCCCCOC(=O)/C=C(\CCCCCCCC)CCCCCCCCCC)CCCCCCCC [CPL-079, ((3-hydroxypropyl)azanediyl)bis(hexane-6,1-diyl) (2E,2′E)-bis(3-octyltridec-2-enoate)]	94%	0.1557	94.46 nm	4.95	1.30
CCCCCCCCCC/C(=C\C(=O)OCCCCCCCN(CCCO)CCCCCCCOC(=O)/C=C(/CCCCCCCC)CCCCCCCCCC)CCCCCCCC [CPL-101, ((3-hydroxypropyl)azanediyl)bis(heptane-7,1-diyl)(2Z,2′Z)-bis(3-octyltridec-2-enoate)]	95%	0.0791	69.38 nm	2.90	1.76
